This note sets out measurements from patent US20250145606A1 (Arcus Biosciences, Inc., priority 2023, published 2025).

The target in one experiment is c-Kit (Homo sapiens (Human), UniProt P10721). The experiment is described as follows: Inhibition of c-Kit kinase activity (HTRF KinEASE-TK). The class given is biochemical. As to conditions: biochemical, HTRF KinEASE-TK. The method, boiled down:
(§1)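 Phosphorylation of biotinylated TK peptide read by HTRF (665/620 nm ratio) after 120 min at rt, following 1 h enzyme–compound preincubation. ATP (2× mix): 20 μM CSF1R, 16 μM c-Kit, 40 μM PDGFRβ, 1 μM PDGFRα; MgCl2 10 mM except c-Kit 5 mM. 22-point 1:2 titration; four-parameter IC50.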
In general terms: TR-FRET usually uses a lanthanide donor and a delayed reading to cut background.

The target in another experiment is CSF1R (Homo sapiens (Human), UniProt P07333). The experiment is described as follows: Inhibition of CSF1R kinase activity (HTRF KinEASE-TK). As to conditions: biochemical, HTRF KinEASE-TK. Put shortly: as §1
CSF1R, sequence (P07333 20-972): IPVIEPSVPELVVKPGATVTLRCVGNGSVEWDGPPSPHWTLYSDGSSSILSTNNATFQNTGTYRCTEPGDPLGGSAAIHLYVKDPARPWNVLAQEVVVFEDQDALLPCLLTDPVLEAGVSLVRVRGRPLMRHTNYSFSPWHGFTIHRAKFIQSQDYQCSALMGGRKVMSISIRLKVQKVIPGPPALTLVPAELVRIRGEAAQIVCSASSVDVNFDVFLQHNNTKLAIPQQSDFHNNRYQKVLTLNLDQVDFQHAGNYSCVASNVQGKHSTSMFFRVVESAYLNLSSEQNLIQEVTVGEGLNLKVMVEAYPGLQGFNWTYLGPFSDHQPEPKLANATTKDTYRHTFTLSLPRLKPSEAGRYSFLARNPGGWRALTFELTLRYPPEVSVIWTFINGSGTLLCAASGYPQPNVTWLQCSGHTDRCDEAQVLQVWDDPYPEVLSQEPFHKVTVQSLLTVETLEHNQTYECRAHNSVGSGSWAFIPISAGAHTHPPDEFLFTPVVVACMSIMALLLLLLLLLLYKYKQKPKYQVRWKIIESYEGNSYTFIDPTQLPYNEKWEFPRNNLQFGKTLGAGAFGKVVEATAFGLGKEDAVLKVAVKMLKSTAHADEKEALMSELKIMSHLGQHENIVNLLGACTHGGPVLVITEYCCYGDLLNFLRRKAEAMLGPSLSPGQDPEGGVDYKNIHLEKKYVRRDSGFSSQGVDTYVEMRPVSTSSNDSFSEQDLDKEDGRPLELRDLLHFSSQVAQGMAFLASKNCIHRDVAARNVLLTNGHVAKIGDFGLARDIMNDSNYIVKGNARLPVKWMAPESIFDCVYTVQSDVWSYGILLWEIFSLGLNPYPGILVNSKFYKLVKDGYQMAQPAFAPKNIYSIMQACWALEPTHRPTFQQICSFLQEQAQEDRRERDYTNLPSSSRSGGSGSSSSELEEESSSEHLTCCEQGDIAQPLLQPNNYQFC
The test system of experiment [1] is Phospho-KIT (Y703) in M07e cells. The experiment is described as follows: Phospho-KIT (Y703) cellular assay in M07e cells. It is filed as cell-based. As to conditions: M-07e; Phospho-KIT (Y703), M07e cells; read-out: M07e Cell IC50. As for the experimental part: Phospho-KIT (Y703) Cellular Assay in M07e Cells
The day prior to assay, M07e cells (DSMZ, catalog #ACC 104) were serum starved. Cells were centrifuged and cell pellet resuspended in OptiMEM (Gibco, catalog #31985062) to a density of 1×10^6-2.5×10^6 cells per mL. Cells were then incubated overnight at 5% CO2 and 37° C. in an appropriately sized flask. On the day of the experiment, an 11 point, half log titration of test compound was pre-dispensed into 96-well round bottom polypropylene plates (Corning, catalog #3365). The serum starved M07e cells were centrifuged and resuspended to a cell density of 1×10^6 cells per mL with DPBS (Gibco, catalog #14190-144). Live/Dead Green Fixable viability dye (Invitrogen, catalog #L34970) was added as 1 μL/1 mL of cell suspension. Cells were then incubated in the dark at 4° C. for 30 min. Cells were washed by centrifugation and resuspension with DPBS+0.5% BSA (Gemini Bio Products, catalog #700110/100, 30% BSA solution). Cells were resuspended, separated into two equal volumes and again centrifuged. Cell pellets were resuspended with OptiMEM™ to a cell density of 1×10^6 cells per mL. Cells were then added to the appropriate compound plate at 100,000 cells per well in 100 μL and mixed. Plates were incubated at 5% CO2 and 37° C. for 50 min. Stem Cell Factor, SCF (R&D Systems, #255-SC/CF) was diluted in OptiMEM to 1 μg/mL and added to all wells as 10 μL for a final concentration of 90.9 ng/mL. Plates were incubated at 5% CO2 and 37° C. for 10 min. Incubation was stopped by addition of 110 μL 4% paraformaldehyde solution in PBS (Life Technologies, catalog #J19943.K2). Plates were incubated at rt for at least 15 min. Plates were then centrifuged and supernatant removed by flicking. Cells were washed once by resuspension in 200 μL DPBS+0.5% BSA, centrifuged, and supernatant removed by flicking. Cells were resuspended in 100 μL 1X Permeabilization buffer (Invitrogen, catalog #88882400) and plates incubated at rt for 30 min. Plates were centrifuged, supernatant removed by flicking, and cells resuspended in 50 μL primary antibody, anti-phospho-c-KIT (Tyr703) (Cell Signaling, catalog #3073), diluted to 1 μg/mL with permeabilization buffer. Plates were incubated at rt for 1 h. Plates were centrifuged, supernatant removed, and cells resuspended with 200 μL DPBS+0.5% BSA. Plates were again centrifuged, supernatant removed by flicking, and cells resuspended in 100 μL secondary antibody, goat anti-rabbit AlexaFluor647 (AF647) (Invitrogen, catalog #A21244) diluted to 1 μg/mL with DPBS+0.5% BSA. Plates were incubated at rt for 30 min. followed by centrifugation, supernatant removal, and cell resuspension with 200 μL DPBS+0.5% BSA. Cells were washed again by centrifugation, supernatant removal, and cell resuspension with 200 μL DPBS+0.5% BSA. Samples were then read by flow cytometry. The Forward: Side scatter plot was gated and that population was gated for live cells based on the Live/Dead Green staining. The geometric mean of AF647 of the live cell population was recorded. Percentage maximum activity in each test well was calculated based on DMSO (100% activity) and positive control treated cell wells (0% activity). The potencies (IC50 values) of test compounds were determined using a standard 4-parameter non-linear regression fit.

Molecules are shown by their SMILES.

c-Kit, sequence (P10721 26-976): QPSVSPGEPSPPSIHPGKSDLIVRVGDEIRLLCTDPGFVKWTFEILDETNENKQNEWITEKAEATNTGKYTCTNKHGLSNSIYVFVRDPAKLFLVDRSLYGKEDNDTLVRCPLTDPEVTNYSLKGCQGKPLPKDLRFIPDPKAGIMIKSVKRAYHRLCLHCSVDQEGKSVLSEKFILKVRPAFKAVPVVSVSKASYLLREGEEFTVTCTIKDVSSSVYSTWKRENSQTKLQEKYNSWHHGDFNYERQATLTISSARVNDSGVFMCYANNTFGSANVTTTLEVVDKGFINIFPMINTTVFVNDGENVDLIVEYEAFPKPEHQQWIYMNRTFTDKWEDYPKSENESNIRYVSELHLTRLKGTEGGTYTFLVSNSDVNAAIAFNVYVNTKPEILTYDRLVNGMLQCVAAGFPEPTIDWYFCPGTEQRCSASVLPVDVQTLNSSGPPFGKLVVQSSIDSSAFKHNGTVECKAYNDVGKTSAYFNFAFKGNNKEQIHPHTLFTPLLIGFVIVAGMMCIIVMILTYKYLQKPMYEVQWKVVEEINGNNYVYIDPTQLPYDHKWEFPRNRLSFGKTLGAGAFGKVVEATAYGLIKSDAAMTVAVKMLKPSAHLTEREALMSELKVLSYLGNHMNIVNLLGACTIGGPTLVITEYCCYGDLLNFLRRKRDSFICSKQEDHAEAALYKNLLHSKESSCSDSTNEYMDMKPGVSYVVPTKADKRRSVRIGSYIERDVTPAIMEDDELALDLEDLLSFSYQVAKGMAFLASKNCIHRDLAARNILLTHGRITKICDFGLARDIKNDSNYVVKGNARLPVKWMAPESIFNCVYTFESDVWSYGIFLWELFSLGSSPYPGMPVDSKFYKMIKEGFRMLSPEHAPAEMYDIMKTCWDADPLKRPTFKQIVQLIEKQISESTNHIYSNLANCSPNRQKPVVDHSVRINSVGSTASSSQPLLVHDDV

`Cc1ncc(C(=O)Nc2cc(C(=O)Nc3cnc(OC(F)F)cn3)c(F)cc2C)s1` [Example 15, N-[5-[[5-(Difluoromethoxy)pyrazin-2-yl]carbamoyl]-4-fluoro-2-methylphenyl]-2-methyl-1,3-thiazole-5-carboxamide]: the concentration for half-maximal inhibition (IC50) against c-Kit was less than 100 nM; against CSF1R, greater than 1000 nM; in experiment [1], less than 100 nM.
For `Cc1ncc(C(=O)Nc2cc(C(=O)Nc3ccnc(C#N)c3)c(F)cc2C)s1` [Example 18, N-[5-[(2-Cyanopyridin-4-yl)carbamoyl]-4-fluoro-2-methylphenyl]-2-methyl-1,3-thiazole-5-carboxamide], the values for the IC50 (against c-Kit; against CSF1R; in experiment [1]) were less than 100 nM, greater than 1000 nM and 100 to 1000 nM, respectively.
`Cc1ncc(C(=O)Nc2cc(C(=O)Nc3ccc(C#N)cn3)c(F)cc2C)s1` [Example 19, N-[5-[(5-Cyanopyridin-2-yl)carbamoyl]-4-fluoro-2-methylphenyl]-2-methyl-1,3-thiazole-5-carboxamide]: the half-inhibitory concentration (IC50) is 100 to 1000 nM against c-Kit, greater than 1000 nM on CSF1R and 100 to 1000 nM in experiment [1].
With `Cc1ncc(C(=O)Nc2cc(C(=O)Nc3ccnc(OC(F)F)c3)c(F)cc2C)s1` [Example 21, N-[5-[[2-(Difluoromethoxy)pyridin-4-yl]carbamoyl]-4-fluoro-2-methylphenyl]-2-methyl-1,3-thiazole-5-carboxamide], the 50% inhibitory concentration (IC50) at c-Kit is less than 100 nM; against CSF1R, greater than 1000 nM; in experiment [1], less than 100 nM.
In the case of `Cc1ncc(C(=O)Nc2cc(C(=O)Nc3ccnc(C(F)F)c3)c(F)cc2C)s1` [Example 22, N-[5-[[2-(Difluoromethyl)pyridin-4-yl]carbamoyl]-4-fluoro-2-methylphenyl]-2-methyl-1,3-thiazole-5-carboxamide], the IC50 against c-Kit was less than 100 nM; against CSF1R, greater than 1000 nM; in experiment [1], 100 to 1000 nM.
Taken in the same sequence, the figures for `COc1cnc(NC(=O)c2cc(NC(=O)c3cnc(C)s3)c(C)cc2F)cn1` [Example 23, N-[4-Fluoro-5-[(5-methoxypyrazin-2-yl)carbamoyl]-2-methylphenyl]-2-methyl-1,3-thiazole-5-carboxamide] were less than 100 nM, greater than 1000 nM and 100 to 1000 nM.
Take `CCc1cnc(NC(=O)c2cc(NC(=O)c3cnc(C)s3)c(C)cc2F)cn1` [Example 27, N-[5-[(5-ethylpyrazin-2-yl)carbamoyl]-4-fluoro-2-methylphenyl]-2-methyl-1,3-thiazole-5-carboxamide]: the half-inhibitory concentration (IC50) against c-Kit was less than 100 nM; against CSF1R it was greater than 1000 nM; in experiment [1] it was less than 100 nM.
With `Cc1ncc(C(=O)Nc2cc(C(=O)Nc3cnc(C(C)C)cn3)c(F)cc2C)s1` [Example 28, N-[4-fluoro-2-methyl-5-[(5-propan-2-ylpyrazin-2-yl)carbamoyl]phenyl]-2-methyl-1,3-thiazole-5-carboxamide], the half-inhibitory concentration (IC50) on c-Kit was less than 100 nM; at CSF1R, greater than 1000 nM; in experiment [1] it was less than 100 nM.
In the case of `Cc1ncc(C(=O)Nc2cc(C(=O)Nc3cnc(C(F)(F)F)cn3)c(F)cc2C)s1` [Example 29, N-[4-fluoro-2-methyl-5-[[5-(trifluoromethyl)pyrazin-2-yl]carbamoyl]phenyl]-2-methyl-1,3-thiazole-5-carboxamide], the IC50 against c-Kit is less than 100 nM; on CSF1R, greater than 1000 nM; in experiment [1], less than 100 nM.
Turning to `Cc1ncc(C(=O)Nc2cc(C(=O)N[C@H]3C[C@@H]3c3ccccc3)c(F)cc2C)s1` [Example 30, N-[4-Fluoro-2-methyl-5-[[(1S,2R)-2-phenylcyclopropyl]carbamoyl]phenyl]-2-methyl-1,3-thiazole-5-carboxamide], the IC50 was 100 to 1000 nM at c-Kit, greater than 1000 nM against CSF1R and less than 100 nM in experiment [1].
The corresponding values for `Cc1ncc(C(=O)Nc2cc(C(=O)Nc3cncc(C(F)(F)F)n3)c(F)cc2C)s1` [Example 33, N-[4-fluoro-2-methyl-5-[[6-(trifluoromethyl)pyrazin-2-yl]carbamoyl]phenyl]-2-methyl-1,3-thiazole-5-carboxamide] are less than 100 nM, greater than 1000 nM and 100 to 1000 nM.

A word on the IC50: it is the concentration that inhibits the measured activity by half.
